Experimental data reported in publication PMC2830424, “The Anopheles gambiae Odorant Binding Protein 1 (AgamOBP1) Mediates Indole Recognition in the Antennae of Female Mosquitoes” (PLoS ONE, 2010).

What was measured:
[1] = molecular target: T1, AgamOBP1 (Odorant Binding Protein 1) (Anopheles gambiae, UniProt Q8T6S0); test: fluorescent reporter dye of the displacement assay (no Kd reported); set-up: gene OBP-1; recombinant OBP1 (r-OBP1)
T1 sequence (Q8T6S0 20-144): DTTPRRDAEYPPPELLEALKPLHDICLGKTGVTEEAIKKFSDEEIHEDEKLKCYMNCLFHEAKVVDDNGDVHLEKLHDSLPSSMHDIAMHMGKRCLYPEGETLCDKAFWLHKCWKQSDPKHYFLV

[2] = molecular target: T1, AgamOBP1 (Odorant Binding Protein 1); test: fluorescence displacement of 1-NPN (screening assay); set-up: gene OBP-1; recombinant OBP1 (r-OBP1)
Description: fluorescence displacement of 1-NPN (screening assay) on AgamOBP1 (Odorant Binding Protein 1) | 3-methyl indole (skatole) […] also bound to r-OBP1 but with an apparently lower affinity

[3] = molecular target: T1, AgamOBP1 (Odorant Binding Protein 1); test: 3H-indole scintillation proximity (Ni-NTA FlashPlate) binding; confirmed by 1-NPN fluorescence displacement; set-up: gene OBP-1; purified 6xHis tagged r-OBP1
Description: 3H-indole scintillation proximity (Ni-NTA FlashPlate) binding; confirmed by 1-NPN fluorescence displacement on AgamOBP1 (Odorant Binding Protein 1) | Binding curve of ^3H indole to r-OBP1 in Ni-NTA FlashPlates.

c1ccc(Nc2cccc3ccccc23)cc1 [1-NPN, N-Phenyl-1-Naphthylamine]
fluorescent reporter dye displacement [1]: increasing concentrations of indole displaced more 1-NPN dye from the AgamOBP1 binding pocket

Cc1c[nH]c2ccccc12 [3-methyl indole]
fluorescence displacement of 1-NPN (screening assay) [2]: 3-methyl indole (skatole) [...] also bound to r-OBP1 but with an apparently lower affinity

c1ccc2[nH]ccc2c1 [indole]
Kd [3]: 2300 nM
